Results on two compounds are retold here after patent US9187428B2, “Substituted dicyanopyridines and use thereof” (Bayer Intellectual Property GmbH, priority 2010, dated 2015).

≈ marks a conversion by molar mass, not a printed value.

Data set [1] concerns the target A1 receptor (Rattus norvegicus (Rat), UniProt P25099). Briefly: A1 receptor GTP shift binding assay with rat brain membranes and [3H]DPCPX. To be noted: rat brain membranes, 0.4 nM [3H]DPCPX, presence and absence of 1 mM GTP. As to the method: B-6. GTP Shift Experiment
Preparation of the Brain Membrane
The brains of male Wistar rats are removed and immediately transferred into an ice-cooled 0.32 mol/l sucrose solution. The tissue is comminuted using a glass-Teflon homogenizer and then centrifuged (1000×g for 10 minutes). The supernatant is then ultracentrifuged at 30 000 g for 30 minutes. The pellet obtained in this manner is resuspended in 10 ml of water and allowed to stand on ice for 30 minutes. After a final centrifugation step at 48 000 g for 10 min, the membranes are resuspended in 50 mmol/l Tris-HCl buffer, pH 7.4, and incubated with 2 U/ml of adenosine deaminase at 37° C. for 30 min. This is followed by a protein determination according to Bradford. The membranes are frozen in small aliquots and stored at −80° C. until required for the binding assay.
The A1 receptor GTP shift binding assay is carried out using rat brain membranes and 0.4 nM [^3H] […] 10 μg of membrane protein are incubated at 37° C. for 20 min with 0.4 nM [^3H]DPCPX and adenosine A1 agonists in various concentrations in buffer (50 mM tris-HCl, pH 7.4, 2 U/ml ADA) in the presence and absence of 1 mM guanosine triphosphate (GTP). […] The radioactivity on the filter is measured with addition of 100 μl of scintillation cocktail in a Microbeta TriLux beta counter (PerkinElmer, Massachusetts, USA). […]

A short description of data set [2]: Determination of the solubility. In kind it is physicochemical. The conditions noted are these: PEG 400/water solution (30:70 v/v), aqueous with cosolvent or surfactant or cyclodextrin, kinetic from dmso stock, PEG 400/water (30:70 v/v), 20° C., read-out: Solubility [mg/liter] PEG/water solution (30:70 v/v). As to the method: B-8. Determination of the Solubility
• PBS buffer pH 6.5: 90.00 g of NaCl p.a. (for example from Merck, Art. No. 1.06404.1000), 13.61 g of KH2PO4 p.a. (for example from Merck, Art. No. 1.04873.1000) and 83.35 g of 1 N aqueous sodium hydroxide solution (for example from Bernd Kraft GmbH, Art. No. 01030.4000) are weighed into a 1 liter measuring flask, the flask is filled with distilled water to 1 liter and the mixture is stirred for 1 hour. Using 1 N hydrochloric acid (for example from Merck, Art. No. 1.09057.1000) the pH is then adjusted to 6.5. • PEG/water solution (30:70 v/v): 30 ml of polyethylene glycol 400 (for example from Merck, Art. No. 8.17003.1000) and 70 ml of distilled water are homogenized in a 100 ml measuring flask. • PEG/PBS buffer pH 6.5 (80:20 v/v): 80 ml of polyethylene glycol 400 (for example from Merck, Art. No. 8.17003.1000) and 20 ml of PBS buffer pH 6.5 are homogenized in a 100 ml measuring flask. • Dimethyl sulfoxide (for example from Baker, Art. No. 7157.2500) • Distilled water. Preparation of the Starting Solution (Original Solution):
At least 4 mg of the test substance are weighed accurately into a wide-necked 10 mm screw V vial (from Glastechnik Gräfenroda GmbH, Art. No. 8004-WM-H/V15μ) with fitting screw cap and septum, in a pipetting robot DMSO is added to a concentration of 50 mg/ml and the mixture is shaken for 10 minutes.
Preparation of the Calibration Solutions:
Preparation of the Starting Solution for Calibration Solutions (Stock Solution):
With the aid of a pipetting robot, 10 μl of the original solution are transferred into a microtiter plate and made up with DMSO to a concentration of 600 μg/ml. The sample is shaken until everything has gone into solution.
Calibration Solution 1 (20 μg/ml):
1000 μl of DMSO are added to 34.4 μl of the stock solution, and the mixture is homogenized.
Calibration Solution 2 (2.5 μg/ml):
700 μl of DMSO are added to 100 μl of calibration solution 1, and the mixture is homogenized.
Preparation of the Sample Solutions:
Sample Solution for Solubilities of Up to 5 g/liter in PBS Buffer pH 6.5:
10 μl of the original solution are transferred into a microtiter plate, and 1000 μl of PBS buffer pH 6.5 are added.
Sample Solution for Solubilities of Up to 5 g/liter in PEG/Water (30:70):
10 μl of the original solution are transferred into a microtiter plate, and 1000 μl of PEG/water (30:70) are added.
Sample Solution for Solubilities of Up to 5 g/liter in PEG/PBS Buffer pH 6.5 (80:20):
10 μl of the original solution are transferred into a microtiter plate, and 1000 μl of PEG/PBS buffer pH 6.5 (80:20) are added.
The sample solutions prepared in this manner are shaken at 1400 rpm in a temperature-adjustable shaker (for example Eppendorf Thermomixer comfort Art. No. 5355 000.011 with interchangeable block Art. No. 5362.000.019) at 20° C. for 24 hours. In each case 180 μl are taken from these solutions and transferred into Beckman Polyallomer Centrifuge Tubes (Art. No. 343621). These solutions are centrifuged at about 223 000×g for one hour (for example Beckman Optima L-90K Ultracentrifuge with Type 42.2 Ti Rotor at 42 000 rpm). From each of the sample solutions, 100 μl of the supernatant are removed and diluted 1:5 and 1:100 with DMSO. From each dilution, a sample is transferred into a vessel suitable for HPLC analysis.
The samples are analyzed by RP-HPLC. Quantification is carried out using a two-point calibration curve of the test compound in DMSO. The solubility is expressed in mg/liter. Analysis sequence: 1) calibration solution […]; 2) calibration solution […]; 3) sample solution 1:5; 4) sample solution 1:100. […]

Chain of A1 receptor (P25099 whole entry): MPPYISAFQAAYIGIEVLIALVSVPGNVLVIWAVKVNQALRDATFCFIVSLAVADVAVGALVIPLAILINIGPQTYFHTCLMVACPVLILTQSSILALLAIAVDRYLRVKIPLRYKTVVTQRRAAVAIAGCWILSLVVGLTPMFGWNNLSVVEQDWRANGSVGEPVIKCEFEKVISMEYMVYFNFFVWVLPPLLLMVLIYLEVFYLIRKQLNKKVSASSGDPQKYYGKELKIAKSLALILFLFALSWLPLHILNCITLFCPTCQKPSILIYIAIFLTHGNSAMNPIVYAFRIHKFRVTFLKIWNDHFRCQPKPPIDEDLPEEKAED

Take `CC(Sc1nc(N)c(C#N)c(-c2ccc(OCCO)cc2)c1C#N)c1cccc(C(N)=O)c1` (single isomer, unassigned) [Example 61, 3-[1-({6-Amino-3,5-dicyano-4-[4-(2-hydroxyethoxy)phenyl]pyridin-2-yl}sulfanyl)ethyl]benzenecarboxamide]: the “GTP Shift” value in data set [1] was 1.5. Also, the solubility at 24 h in data set [2] is 90 mg/L (≈ 196 µM).
Regarding `COCCOc1ccc(-c2c(C#N)c(N)nc(SC(C)c3cccc(C(N)=O)c3)c2C#N)cc1` (single isomer, unassigned) [Example 64, 3-[1-({6-Amino-3,5-dicyano-4-[4-(2-methoxyethoxy)phenyl]pyridin-2-yl}sulfanyl)ethyl]benzenecarboxamide], in data set [1], the “GTP Shift” value amounted to 2.8. Moreover, the solubility at 24 h in data set [2] was found to be 260 mg/L (≈ 549 µM).
